Assay results as given in US20260297118A1, “SUBSTITUTED PYRIMIDINONE AND AZAPYRIMIDINONE COMPOUNDS, COMPOSITIONS, AND USES THEREOF” (LAKEWOOD AMEDEX, INC., priority 2023, published 2026).

How the values were obtained:
Type in all cases: cell-based
Escherichia coli (0102) = test: MIC, broth microdilution, Escherichia coli (0102); conditions: pH 4-5, 18 to 24 hours
Procedure: (§1) MIC testing is conducted using the broth (Mueller Hinton Broth) microdilution procedures relevant to each organism group as established by the Clinical and Laboratory Standards Institute (CLSI; 3-7). MIC plates are prepared in accordance with CLSI (3-7). To prepare the test plates, automated liquid handlers are used to conduct serial dilutions and liquid transfers. Automated liquid handlers utilized in this study include the Multidrop 384 (Labsystems, Helsinki, Finland) and the Biomek 2000 (Beckman Coulter, Fullerton CA). The solution is diluted to desired pH using 1 M Citric Acid or 1 M NaOH buffer. A standardized inoculum of each test organism is prepared per CLSI methods (3, 5-7) to equal a 0.5 McFarland standard in the appropriate media followed by an additional 1:20 dilution (1:10 for anaerobes).
(§2) The plates are then inoculated with 10 μL of the diluted 0.5 McFarland suspension using the Biomek 2000 from low to high drug concentration, resulting in a final concentration of approximately 5×10^5 CFU/mL per well. An un-inoculated plate is incubated for the purpose of assessing solubility of the drug in the test media. The plates are stacked 3 to 4 high, covered with a sterile lid on the top plate, and incubated for 18 to 24 hours according to CLSI. The MIC is recorded as the lowest concentration of respective compound that inhibited visible growth of the organism.

Escherichia coli (6260) = test: MIC, broth microdilution, Escherichia coli (6260); conditions: pH 4-5, 18 to 24 hours
Procedure: as §1, §2

Escherichia coli (6098) = test: MIC, broth microdilution, Escherichia coli (6098); conditions: pH 4-5, 18 to 24 hours
Procedure: as §1, §2

Escherichia coli (6258) = test: MIC, broth microdilution, Escherichia coli (6258); conditions: pH 4-5, 18 to 24 hours
Procedure: as §1, §2

Escherichia coli (6259) = test: MIC, broth microdilution, Escherichia coli (6259); conditions: pH 4-5, 18 to 24 hours
Procedure: as §1, §2

[1] = test system: Pseudomonas aeruginosa (0103); test: MIC, broth microdilution, Pseudomonas aeruginosa (0103); conditions: pH 4-5, 18 to 24 hours
Procedure: as §1, §2

[2] = test system: Pseudomonas aeruginosa (6160); test: MIC, broth microdilution, Pseudomonas aeruginosa (6160); conditions: pH 4-5, 18 to 24 hours
Procedure: as §1, §2

[3] = test system: Pseudomonas aeruginosa (6234); test: MIC, broth microdilution, Pseudomonas aeruginosa (6234); conditions: pH 4-5, 18 to 24 hours
Procedure: as §1, §2

[4] = test system: Pseudomonas aeruginosa (6326); test: MIC, broth microdilution, Pseudomonas aeruginosa (6326); conditions: pH 4-5, 18 to 24 hours
Procedure: as §1, §2

[5] = test system: Pseudomonas aeruginosa (6328); test: MIC, broth microdilution, Pseudomonas aeruginosa (6328); conditions: pH 4-5, 18 to 24 hours
Procedure: as §1, §2

[6] = test system: Staphylococcus aureus (43330); test: MIC, broth microdilution, Staphylococcus aureus (43330); conditions: pH 3, Mueller Hinton Broth, 18 to 24 hours, read-out: MIC
Procedure: as §1, §2

Escherichia coli (25922) = test: MIC, broth microdilution, Escherichia coli (25922); conditions: pH 3, Mueller Hinton Broth, 18 to 24 hours, read-out: MIC
Procedure: as §1, §2

[7] = test system: Pseudomonas aeruginosa (27853); test: MIC, broth microdilution, Pseudomonas aeruginosa (27853); conditions: pH 3, Mueller Hinton Broth, 18 to 24 hours, read-out: MIC
Procedure: as §1, §2

Candida albicans (22972) = test: MIC, broth microdilution, Candida albicans (22972); conditions: pH 3, Mueller Hinton Broth, 18 to 24 hours, read-out: MIC
Procedure: as §1, §2

E. faecalis ATCC-29212 = test: MIC, broth microdilution, E. faecalis ATCC-29212; parameters: unit not given beside the values; conditions: E. faecalis ATCC-29212, Gram +ve; pH 3; 18 to 24 hours
Procedure: as §1, §2

E. faecalis MMX-3353 = test: MIC, broth microdilution, E. faecalis MMX-3353; conditions: E. faecalis MMX-3353, Gram +ve; pH 3; 18 to 24 hours
Procedure: as §1, §2

E. faecium ATCC-35667 = test: MIC, broth microdilution, E. faecium ATCC-35667; conditions: E. faecium ATCC-35667, Gram +ve; pH 3; 18 to 24 hours
Procedure: as §1, §2

E. faecium MMX-3355 = test: MIC, broth microdilution, E. faecium MMX-3355; parameters: unit not given beside the values; conditions: E. faecium MMX-3355, Gram +ve; pH 3; 18 to 24 hours
Procedure: as §1, §2

S. agalactiae ATCC-13813 = test: MIC, broth microdilution, S. agalactiae ATCC-13813; parameters: unit not given beside the values; conditions: S. agalactiae ATCC-13813, Gram +ve; pH 3; 18 to 24 hours
Procedure: as §1, §2

S. aureus ATCC -3591 = test: MIC, broth microdilution, S. aureus ATCC -3591; parameters: unit not given beside the values; conditions: S. aureus ATCC -3591, Gram +ve; pH 3; 18 to 24 hours
Procedure: as §1, §2

S. aureus ATCC-29213 = test: MIC, broth microdilution, S. aureus ATCC-29213; parameters: unit not given beside the values; conditions: S. aureus ATCC-29213, Gram +ve; pH 3; 18 to 24 hours
Procedure: as §1, §2

[8] = test system: S. dysgalactiae ATCC-6644; test: MIC, broth microdilution, S. dysgalactiae ATCC-6644; parameters: unit not given beside the values; conditions: S. dysgalactiae ATCC-6644, Gram +ve; pH 3; 18 to 24 hours
Procedure: as §1, §2

[9] = test system: S. haemolyticus ATCC-29970; test: MIC, broth microdilution, S. haemolyticus ATCC-29970; conditions: S. haemolyticus ATCC-29970, Gram +ve; pH 3; 18 to 24 hours
Procedure: as §1, §2

S. pyogenes ATCC-49399 = test: MIC, broth microdilution, S. pyogenes ATCC-49399; parameters: unit not given beside the values; conditions: S. pyogenes ATCC-49399, Gram +ve; pH 3; 18 to 24 hours
Procedure: as §1, §2

[10] = test system: S. saprophyticus ATCC-49907; test: MIC, broth microdilution, S. saprophyticus ATCC-49907; parameters: unit not given beside the values; conditions: S. saprophyticus ATCC-49907, Gram +ve; pH 3; 18 to 24 hours
Procedure: as §1, §2

A. baumannii ATCC-19606 = test: MIC, broth microdilution, A. baumannii ATCC-19606; parameters: unit not given beside the values; conditions: A. baumannii ATCC-19606, Gram −ve; pH 3; 18 to 24 hours
Procedure: as §1, §2

[11] = test system: A. radioresistens MMX-8551; test: MIC, broth microdilution, A. radioresistens MMX-8551; parameters: unit not given beside the values; conditions: A. radioresistens MMX-8551, Gram −ve; pH 3; 18 to 24 hours
Procedure: as §1, §2

C. freundii CDC-0157 = test: MIC, broth microdilution, C. freundii CDC-0157; parameters: unit not given beside the values; conditions: C. freundii CDC-0157, Gram −ve; pH 3; 18 to 24 hours
Procedure: as §1, §2

C. striatum ATCC-6940 = test: MIC, broth microdilution, C. striatum ATCC-6940; conditions: C. striatum ATCC-6940, Gram +ve; pH 3; 18 to 24 hours
Procedure: as §1, §2

E. cloacae ATCC BAA-2468 = test: MIC, broth microdilution, E. cloacae ATCC BAA-2468; parameters: unit not given beside the values; conditions: E. cloacae ATCC BAA-2468, Gram −ve; pH 3; 18 to 24 hours
Procedure: as §1, §2

E. coli ATCC-25922 = test: MIC, broth microdilution, E. coli ATCC-25922; parameters: unit not given beside the values; conditions: E. coli ATCC-25922, Gram −ve; pH 3; 18 to 24 hours
Procedure: as §1, §2

E. coli MMX-8870 = test: MIC, broth microdilution, E. coli MMX-8870; conditions: E. coli MMX-8870, Gram −ve; pH 3; 18 to 24 hours
Procedure: as §1, §2

H. influenzae ATCC-49247 = test: MIC, broth microdilution, H. influenzae ATCC-49247; parameters: unit not given beside the values; conditions: H. influenzae ATCC-49247, Gram −ve; pH 3; 18 to 24 hours
Procedure: as §1, §2

[12] = test system: K. pneumoniae ATCC BAA-2146; test: MIC, broth microdilution, K. pneumoniae ATCC BAA-2146; parameters: unit not given beside the values; conditions: K. pneumoniae ATCC BAA-2146, Gram −ve; pH 3; 18 to 24 hours
Procedure: as §1, §2

K. pneumoniae ATCC-43816 = test: MIC, broth microdilution, K. pneumoniae ATCC-43816; parameters: unit not given beside the values; conditions: K. pneumoniae ATCC-43816, Gram −ve; pH 3; 18 to 24 hours
Procedure: as §1, §2

M. morganii CDC-0519 = test: MIC, broth microdilution, M. morganii CDC-0519; parameters: unit not given beside the values; conditions: M. morganii CDC-0519, Gram −ve; pH 3; 18 to 24 hours
Procedure: as §1, §2

P. aeruginosa ATCC-27853 = test: MIC, broth microdilution, P. aeruginosa ATCC-27853; parameters: unit not given beside the values; conditions: P. aeruginosa ATCC-27853, Gram −ve; pH 3; 18 to 24 hours
Procedure: as §1, §2

P. mirabilis CDC-0155 = test: MIC, broth microdilution, P. mirabilis CDC-0155; parameters: unit not given beside the values; conditions: P. mirabilis CDC-0155, Gram −ve; pH 3; 18 to 24 hours
Procedure: as §1, §2

Which results are given for CCCCOP(=O)(O)OC[C@H]1O[C@@H](n2ccc(N)nc2=O)C[C@@H]1O [R-1, (2R,3S,5R)-5-(4-amino-2-oxopyrimidin-1(2H)-yl)-3-hydroxytetrahydrofuran-2-methyl butyl phosphate]?
MIC (Escherichia coli (0102)): 50 mg/mL; MIC (Escherichia coli (6260)): 50 mg/mL; MIC (Escherichia coli (6098)): 50 mg/mL; MIC (Escherichia coli (6258)): 50 mg/mL; MIC (Escherichia coli (6259)): 50 mg/mL; MIC [1]: 25 mg/mL; MIC [2]: 25 mg/mL; MIC [3]: 25 mg/mL; MIC [4]: 25 mg/mL; MIC [5]: 25 mg/mL

With CCCCOP(=O)(O)OC[C@H]1O[C@@H](n2ccc(N(C)C)nc2=O)C[C@@H]1O [LAI-008, butyl (((2R,3S,5R)-5-(4-(N,N-dimethylamino)-2-oxopyrimidin-1(2H)-yl)-3-hydroxytetrahydrofuran-2-yl)methyl) hydrogen phosphate] as the compound, how does the MIC [6] read?
Its MIC is 25 mg/mL.

What about the MIC (Escherichia coli (25922)) of the same compound?
The MIC was 1 mg/mL.

And the MIC [7]?
Its MIC is 5 mg/mL.

What about the MIC (Candida albicans (22972)) of the same compound?
The MIC was 50 mg/mL.

What about the MIC (E. faecalis ATCC-29212) of the same compound?
The MIC was 3.13.

What about the MIC (E. faecalis MMX-3353) of the same compound?
Its MIC is 6.25.

What about the MIC (E. faecium ATCC-35667) of the same compound?
The MIC was 3.13.

What about the MIC (E. faecium MMX-3355) of the same compound?
Its MIC is 3.13.

What about the MIC (S. agalactiae ATCC-13813) of the same compound?
Its MIC is 3.12.

And the MIC (S. aureus ATCC -3591)?
Its MIC is 6.25.

And the MIC (S. aureus ATCC-29213)?
The MIC was 1.56.

And the MIC [8]?
Its MIC is 3.12.

And the MIC [9]?
Its MIC is 0.39.

And the MIC (S. pyogenes ATCC-49399)?
Its MIC is 3.12.

What about the MIC [10] of the same compound?
The MIC was 3.13.

And the MIC (A. baumannii ATCC-19606)?
Its MIC is 12.50.

And the MIC [11]?
The MIC was 12.50.

What about the MIC (C. freundii CDC-0157) of the same compound?
The MIC was 3.13.

And the MIC (C. striatum ATCC-6940)?
Its MIC is 3.12.

And the MIC (E. cloacae ATCC BAA-2468)?
The MIC was 12.50.

And the MIC (E. coli ATCC-25922)?
The MIC was 6.25.

What about the MIC (E. coli MMX-8870) of the same compound?
Its MIC is 12.50.

What about the MIC (H. influenzae ATCC-49247) of the same compound?
The MIC was 0.78.

What about the MIC [12] of the same compound?
Its MIC is 12.50.

What about the MIC (K. pneumoniae ATCC-43816) of the same compound?
The MIC was 12.50.

What about the MIC (M. morganii CDC-0519) of the same compound?
The MIC was 3.13.

What about the MIC (P. aeruginosa ATCC-27853) of the same compound?
The MIC was 5.63.

And the MIC (P. mirabilis CDC-0155)?
The MIC was 3.13.

CCCCOP(=O)(O)OC[C@H]1O[C@@H](n2ccc(N)nc2=O)[C@H](OC)[C@@H]1O [R-5, (2R,3S,4R,5R)-5-(4-amino-2-oxopyrimidin-1(2H)-yl)-3-hydroxy-4-methoxy-tetrahydrofuran-2-methyl butyl phosphate] was tested. Which MIC (Escherichia coli (0102)) did it give?
The MIC was 50 mg/mL.

And the MIC (Escherichia coli (6260))?
The MIC was 100 mg/mL.

What about the MIC (Escherichia coli (6098)) of the same compound?
The MIC was 100 mg/mL.

And the MIC (Escherichia coli (6258))?
Its MIC is 100 mg/mL.

What about the MIC (Escherichia coli (6259)) of the same compound?
The MIC was 50 mg/mL.

What about the MIC [1] of the same compound?
The MIC was 25 mg/mL.

And the MIC [2]?
Its MIC is 25 mg/mL.

And the MIC [3]?
The MIC was 25 mg/mL.

And the MIC [4]?
The MIC was 25 mg/mL.

What about the MIC [5] of the same compound?
Its MIC is 25 mg/mL.
